Assay results: patent US5482996A, “Protein-containing polymers and a method of synthesis of protein-containing polymers in organic solvents” (University of Pittsburgh, priority 1993, dated 1996)
Starred links: 1 amine or outer side, 2 acyl side, 3 side chain; linkers in the order of their positions; H or OH if unused. Residues, ends and D or L forms follow the SMILES beside them. *: point of attachment. pNA = O=[N+]([O-])c1ccc(N*)cc1; Suc = O=C(CCC(=O)[*:2])[*:1]

Columns and labels:
Assay in all cases: Hydrolysis of peptide p-nitroanilide substrate, kinetic constants
Assay type in all cases: biochemical
[1] = molecular target: T1, Subtilisin Carlsberg, doubly modified with PEG monomethacrylate (MW 8,000) (Bacillus licheniformis, UniProt P00780)
T1 construct: purchased Sigma Chemical Co
T1 sequence (P00780 106-379): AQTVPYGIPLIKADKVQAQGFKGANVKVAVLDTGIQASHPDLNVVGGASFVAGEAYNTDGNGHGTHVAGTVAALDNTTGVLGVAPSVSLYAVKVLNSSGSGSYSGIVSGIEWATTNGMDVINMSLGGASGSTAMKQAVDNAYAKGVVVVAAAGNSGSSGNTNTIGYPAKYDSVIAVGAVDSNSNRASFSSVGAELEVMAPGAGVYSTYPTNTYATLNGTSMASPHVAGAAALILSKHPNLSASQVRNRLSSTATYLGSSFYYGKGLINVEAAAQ
Protocol: (§1) Kinetic studies of the modified protein were performed using substrate (N-succinyl-L-alanyl-L-alanyl-L-prolyl-L-phenylalanyl p-nitroanilide) in 0.1M Tris-HCl buffer, pH 8.6. The purified HPLC fractions (three total) were tested for activity while increasing the substrate concentrations in equal increments. Substrate concentration versus rate was plotted to determine Vmax and Km using non-linear regression analysis. A standard of pure subtilisin was analyzed as a control.
(§2) Before reacting PEG-subtilisin with other materials it is necessary to fully characterize the activity and stability of the "bio-monomer". Using solubility, IMAC, and HPLC the modified protein was separated into predominantly singly or doubly modified protein fractions. […] Thus, the activities and stabilities noted are average properties for the sample being studied. For comparison to the native protein, unmodified protein was purified from the modification reaction mixture and characterized to some degree.
(§3) As set forth above, the activity of the modified enzymes was assessed with the artificial peptide substrate succinyl-L-alanyl-L-alanyl-L-prolyl-L-phenylalanyl p-nitroanilide. A sample of 30 mg modified protein powder was dissolved in tetrahydrofuran, and filtered with a solvent resistant 0.22 μm filter in order to remove the insoluble native protein. The solvent was evaporated and, as mentioned above, values for Vmax and Km were determined.

[2] = molecular target: T2, Subtilisin Carlsberg, singly modified with PEG monomethacrylate (MW 8,000) (Bacillus licheniformis, UniProt P00780); conditions: 25% dioxane/75% buffer
T2 construct: purchased Sigma Chemical Co
T2 sequence (P00780 106-379): T1 sequence (P00780 106-379)
Protocol: as §1, §2, §3

[3] = molecular target: T3, Subtilisin Carlsberg, unmodified fraction purified from the PEG modification reaction mixture (Bacillus licheniformis, UniProt P00780)
T3 construct: purchased Sigma Chemical Co
T3 sequence (P00780 106-379): T1 sequence (P00780 106-379)
Protocol: as §1, §2, §3

[4] = molecular target: T4, Subtilisin Carlsberg, native (pure subtilisin standard) (Bacillus licheniformis, UniProt P00780)
T4 construct: purchased Sigma Chemical Co
T4 sequence (P00780 106-379): T1 sequence (P00780 106-379)
Protocol: as §1, §3

Question: Which Vmax ([1]; 25% dioxane/75% buffer) does the source give for `C[C@H](NC(=O)CCC(=O)O)C(=O)N[C@@H](C)C(=O)N1CCC[C@H]1C(=O)N[C@@H](Cc1ccccc1)C(=O)Nc1ccc([N+](=O)[O-])cc1` [N-succinyl-L-alanyl-L-alanyl-L-prolyl-L-phenylalanyl p-nitroanilide] (Suc-AAPF-pNA) here?
Answer: Its Vmax is 1.8 ΔA412/sec/mg protein.

Question: And the Vmax ([1]; Tris-HCl buffer (0.1M, pH 8.6))?
Answer: The Vmax was 1.6 ΔA412/sec/mg protein.

Question: What about the Vmax [2] of the same compound?
Answer: The Vmax was 5.3 ΔA412/sec/mg protein.

Question: What about the Vmax ([3]; 25% dioxane/75% buffer) of the same compound?
Answer: The Vmax was 2.9 ΔA412/sec/mg protein.

Question: What about the Vmax ([3]; Tris-HCl buffer (0.1M, pH 8.6)) of the same compound?
Answer: The Vmax was 2.2 ΔA412/sec/mg protein.

Question: And the Vmax ([4]; 25% dioxane/75% buffer)?
Answer: Its Vmax is 66.2 ΔA412/sec/mg protein.

Question: And the Vmax ([4]; Tris-HCl buffer (0.1M, pH 8.6))?
Answer: The Vmax was 108 ΔA412/sec/mg protein.
